According to patent US9814787B2, “Luciferin amides” (University of Massachusetts, priority 2013, dated 2017):

Experiments:
pig liver esterase (PLE) = assay: Treatment of luciferin amides with pig liver esterase, then R218K luciferase, bioluminescence; assay type: biochemical; conditions: 50 μM luciferin amide, PLE and PLE 1:10, one hour at room temperature
Method: (§1) Three luciferin amides (50 μM), i.e., Compounds 2, 9, and 25, were treated with a buffer alone, a buffer containing FAAH, a buffer containing FAAH 1:10 (i.e., a ten-fold dilution of FAAH), a buffer containing pig liver esterase (PLE), or a buffer containing PLE 1:10 (i.e., a ten-fold dilution of PLE). After one hour at room temperature, R218K luciferase was added at a concentration of 3 μg/mL and bioluminescence was detected on a Turner Veritas.

FAAH [1] = target: T1, FAAH (Homo sapiens, UniProt O00519); assay: In vitro FAAH assay: luciferin amide treated with recombinant FAAH, then R218K luciferase, bioluminescence; assay type: biochemical; conditions: 50 μM luciferin amide; for increase in bioluminescence signal on addition of FAAH versus buffer: 10 minutes at room temperature, R218K luciferase 3 μg/mL; for effect of ten-fold dilution of FAAH on bioluminescent signal: FAAH vs FAAH 1:10, one hour at room temperature
T1 construct: purchased Cayman Chemical
T1 sequence (O00519 1-579): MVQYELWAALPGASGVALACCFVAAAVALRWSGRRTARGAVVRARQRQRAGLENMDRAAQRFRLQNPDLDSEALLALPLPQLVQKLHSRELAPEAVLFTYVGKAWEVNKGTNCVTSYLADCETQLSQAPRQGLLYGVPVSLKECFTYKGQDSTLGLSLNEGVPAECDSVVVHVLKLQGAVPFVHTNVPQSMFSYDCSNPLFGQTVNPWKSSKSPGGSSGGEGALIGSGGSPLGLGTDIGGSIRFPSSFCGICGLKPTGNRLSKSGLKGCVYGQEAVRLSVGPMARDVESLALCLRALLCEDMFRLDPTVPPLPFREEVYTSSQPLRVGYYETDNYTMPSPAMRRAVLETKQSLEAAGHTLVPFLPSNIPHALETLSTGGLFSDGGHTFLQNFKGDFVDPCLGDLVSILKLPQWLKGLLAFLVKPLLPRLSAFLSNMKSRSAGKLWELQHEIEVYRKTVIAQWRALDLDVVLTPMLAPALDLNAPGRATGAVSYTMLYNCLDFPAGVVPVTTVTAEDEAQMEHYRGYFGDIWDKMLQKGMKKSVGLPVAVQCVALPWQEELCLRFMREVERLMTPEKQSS
Method: Recombinant FAAH, FAAH assay buffer, and FAAH inhibitors URB-597, PF-750, and PF-3845 were purchased from Cayman Chemical.
Bioluminescence assays were performed in either a Turner Veritas luminometer or a Xenogen IVIS-100 imaging system. For Veritas experiments, white 96-well plates were used (Costar 3912). For IVIS experiments, black 96-well plates were used (Costar 3915).
(§2) Luciferin amides (50 μM) were treated with FAAH and FAAH buffer (Cayman Chemical) in the presence or absence of 50 μM FAAH inhibitor URB-597 or 50 μM luciferase inhibitor 2-(4′-methoxyphenyl)benzothiazole. After 10 minutes at room temperature, R218K mutant firefly luciferase was added at a concentration of 3 μg/mL and bioluminescence was detected on a Turner Veritas luminometer.
(§3) Four luciferin amides (50 μM), i.e., Compounds 1, 9, 10, and 25, were treated with a buffer alone, a buffer containing FAAH, a buffer containing FAAH+50 μM URB-597 (i.e., a FAAH inhibitor), or a buffer containing FAAH+50 μM luciferase inhibitor 2-(4′-methoxyphenyl)benzothiazole. After 10 minutes at room temperature, R218K luciferase was added at a concentration of 3 μg/mL and bioluminescence was detected on a Turner Veritas.
as §1

[2] = target: R218K mutant firefly luciferase (Photinus pyralis, UniProt P08659, R218K); assay: In vitro FAAH assay in presence of luciferase inhibitor 2-(4′-methoxyphenyl)benzothiazole; assay type: biochemical; conditions: 50 μM luciferase inhibitor, 50 μM luciferin amide
Method: as §2
as §3, with “Veritas. […] These bioluminescence signals were inhibited by more than 100-fold by treatment with the FAAH inhibitor URB-597.” for “Veritas.”

[3] = tested on: FVB mice expressing luciferase in brain tissue; assay: In vivo bioluminescence imaging in brains of FVB mice injected with AAV9-luc+ in the striatum
Method: (§4) FVB mice were injected with AAV9-luc+ in the brain striatum. Bioluminescence assays were performed approximately nine months after AAV injection. Each luciferin amide was diluted into PBS to the indicated concentration from a 50 mM DMSO stock solution and filtered (0.22 μm) prior to intraperitoneally injection (0.1 mL per mouse). Mice were anesthetized with isoflurane (2% in 1 L/min oxygen) and images acquired on a Xenogen IVIS 100 imaging system and analyzed with Living Image software.
Certain luciferin amides described herein were tested to determine whether they would image well in live mice. For these studies, FVB mice were injected with adeno-associated virus 9 (AAV9)-luciferase constructs into the brain striatum.
Bioluminescence imaging (BLI) in the brain is more challenging than imaging in the rest of the organism, in part because a luciferase substrate (i.e., a luciferin) must cross the blood-brain barrier. Therefore, the ability of a synthetic luciferin (i.e., Compound 9's corresponding luciferin (CycLuc1)) to allow bioluminescence imaging in these mice, as compared to the native firefly luciferase substrate (i.e., D-luciferin) was first tested. Specifically, each substrate was injected intraperitoneally (IP) in PBS at a volume of 0.1 mL, D-luciferin being at a concentration of 100 mM and CycLuc1 being at a concentration of 5 mM. […] CycLuc1 was then injected at a 320-fold lower dose (0.06 mL of 0.5 mM) than D-luciferin.
Specifically, Compound 9 (i.e., CycLuc1 amide) was injected at 0.5 mM in 0.5% DMSO/PBS (0.06 mL).
In this figure, mice in the top row were treated with luciferin amides in the amounts indicated in the figure, and the mice in the bottom row were the same mice that were imaged one day later using a standard dose of D-luciferin.

FAAH [4] = target: T2, FAAH (Mus musculus, UniProt O08914); assay: In vivo FAAH inhibition assay with PF-3845; parameters: species or system mice
T2 construct: metabolized into CycLuc1 by endogenous FAAH activity; from tissue; host or cells: brain (striatum) of live FVB mice expressing AAV9-delivered luciferase
T2 sequence (O08914 1-579): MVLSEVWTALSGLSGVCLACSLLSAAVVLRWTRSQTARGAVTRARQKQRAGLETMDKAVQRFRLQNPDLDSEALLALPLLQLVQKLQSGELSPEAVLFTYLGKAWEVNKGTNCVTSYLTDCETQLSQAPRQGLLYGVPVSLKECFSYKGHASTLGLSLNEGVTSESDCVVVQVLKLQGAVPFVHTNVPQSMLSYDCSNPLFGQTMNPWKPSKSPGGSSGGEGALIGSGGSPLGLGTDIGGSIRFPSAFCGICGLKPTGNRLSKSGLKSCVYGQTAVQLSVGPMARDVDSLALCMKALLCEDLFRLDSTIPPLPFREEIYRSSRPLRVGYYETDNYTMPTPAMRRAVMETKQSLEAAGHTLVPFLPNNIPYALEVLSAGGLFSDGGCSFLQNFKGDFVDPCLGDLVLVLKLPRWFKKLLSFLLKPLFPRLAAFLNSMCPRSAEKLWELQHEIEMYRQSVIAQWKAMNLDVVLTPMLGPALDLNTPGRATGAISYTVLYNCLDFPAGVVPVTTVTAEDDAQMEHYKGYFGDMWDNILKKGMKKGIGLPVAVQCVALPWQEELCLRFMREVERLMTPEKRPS
Method: as §4
Mice were injected intraperitoneally with 1 mg/mL of a specific FAAH inhibitor PF-3845 dissolved in 18:1:1 PBS:ethanol:emulphor (0.1 mL), or with an equal volume of 18:1:1 PBS:ethanol:emulphor control vehicle. Thirty minutes after injection, the mice were imaged as described above.
FAAH is highly expressed in most tissues, particularly in the brain. To determine whether the luciferin amides are cleaved exclusively by FAAH in the brain tissue, eight FVB mice expressing AAV9-luciferase in the striatum were divided into two groups: (1) four mice were injected IP with 1 mg/mL of a specific FAAH inhibitor PF-3845 dissolved in 18:1:1 PBS:ethanol:emulphor (0.1 mL), and (2) four mice were treated with an equal volume of 18:1:1 PBS:ethanol:emulphor control vehicle without PF-3845. After 30 minutes, one mouse from each group was IP injected with 5 mM CycLuc1 (i.e., Compound 9's corresponding luciferin) in PBS (0.1 mL), and three were injected with 0.1 mM Compound 5 in 0.2% DMSO/PBS (0.1 mL). The mice were imaged 10 minutes after substrate injection. Mice in the right panel were group (1) (i.e., treated with a FAAH inhibitor) and mice in the left panel were from group (2) (i.e., without being treated with a FAAH inhibitor).

[5] = 0.06 mL of 0.5 mM in 0.5% DMSO/PBS

Sequence of R218K mutant firefly luciferase (P08659 whole entry R218K): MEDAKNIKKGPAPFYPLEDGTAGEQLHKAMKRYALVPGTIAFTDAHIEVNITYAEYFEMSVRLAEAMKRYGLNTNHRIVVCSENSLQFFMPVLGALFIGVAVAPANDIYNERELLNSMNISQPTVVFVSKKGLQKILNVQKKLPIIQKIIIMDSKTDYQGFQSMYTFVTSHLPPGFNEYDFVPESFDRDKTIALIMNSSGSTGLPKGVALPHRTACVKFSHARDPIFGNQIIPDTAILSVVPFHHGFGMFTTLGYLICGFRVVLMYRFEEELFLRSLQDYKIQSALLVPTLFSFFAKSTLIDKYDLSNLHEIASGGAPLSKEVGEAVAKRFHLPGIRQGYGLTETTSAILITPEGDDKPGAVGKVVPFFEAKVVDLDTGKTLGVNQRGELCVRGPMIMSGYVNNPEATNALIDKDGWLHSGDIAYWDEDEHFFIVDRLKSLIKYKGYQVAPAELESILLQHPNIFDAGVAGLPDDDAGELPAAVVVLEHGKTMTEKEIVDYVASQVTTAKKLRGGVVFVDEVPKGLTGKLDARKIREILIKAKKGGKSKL

Row | Structure (SMILES) | bioluminescence signal after treatment with PLE (pig liver esterase (PLE)) | increase in bioluminescence signal on addition of FAAH versus buffer (FAAH [1]) [fold] | effect of ten-fold dilution of FAAH on bioluminescent signal (FAAH [1]) | inhibition of the signal by luciferase inhibitor 2-(4′-methoxyphenyl)benzothiazole [2] [fold] | light emission relative to an equivalent dose of CycLuc1 [3, 5] | light emission relative to the 5 mM CycLuc1 dose [3, 5] | brain bioluminescence signal relative to D-luciferin (0.1 mL of 100 mM) ([3]; 0.06 mL of 0.5 mM, 320-fold lower dose) | light emission in brains of live mice (qualitative) ([3]; mouse, in vivo) | total photon flux (FAAH [4]; 5 mM in PBS (0.1 mL) IP, groups (1) PF-3845 and (2) vehicle, 10 minutes after substrate) | change of light output by FAAH inhibitor PF-3845 (group 1 vs group 2) (FAAH [4]; PF-3845 1 mg/mL (0.1 mL) IP 30 minutes before substrate) | persistence of signal relative to D-luciferin ([3]; 0.06 mL of 0.5 mM) | duration of signal ([3]; IP, 0.1 mL of 5 mM) | time of peak signal ([3]; IP, 0.1 mL of 5 mM) [min] | brain bioluminescence signal relative to D-luciferin (0.1 mL of 100 mM) ([3]; IP, 0.1 mL of 5 mM in PBS, 20-fold lower dose)
1 | NC(=O)[C@H]1CSC(c2nc3cc4c(cc3s2)NCC4)=N1 [Compound 9, (S)-4,5-dihydro-2-(6,7-dihydro-5H-thiazolo[4,5-f]indol-2-yl)thiazole-4-carboxamide] | failed to elicit a bioluminescence signal | 8972 | corresponding reduction in the intensity of the bioluminescent signal | 2.3 | exceeded that obtained from an equivalent dose of CycLuc1 itself | nearly equaling to the light emission obtained from the 5 mM CycLuc1 dose | over an order of magnitude greater |  |  |  |  |  |  | 
2 | NC(=O)[C@H]1CSC(c2nc3ccc(O)cc3s2)=N1 [Compound 25, (S)-4,5-dihydro-2-(6-hydroxybenzothiazol-2-yl)thiazole-4-carboxamide] | failed to elicit a bioluminescence signal | 269 | corresponding reduction in the intensity of the bioluminescent signal | 14.5 |  |  |  | relatively weak light emission |  |  |  |  |  | 
3 | CN(C)c1ccc2nc(C3=N[C@@H](C(N)=O)CS3)sc2c1 [Compound 2, (S)-2-(6-(dimethylamino)benzo[d]thiazol-2-yl)-4,5-dihydrothiazole-4-carboxamide] | failed to elicit a bioluminescence signal |  | corresponding reduction in the intensity of the bioluminescent signal |  |  |  |  |  |  |  |  |  |  | 
4 | O=C(O)[C@H]1CSC(c2nc3cc4c(cc3s2)NCC4)=N1 [CycLuc1, reference compound] |  |  |  |  |  |  |  |  | 9×10^6 p/s | unchanged | persisted for a longer time | over 2 hours | ~10 | an order of magnitude higher signal than D-luciferin
